ChEMBL document CHEMBL5233273, “An overview of hydroxypyranone and hydroxypyridinone as privileged scaffolds for novel drug discovery” (Eur J Med Chem, 2021)
pIC50, pKi: −log10 of the molar value. Values after ≈ are worked out from the molar mass of the structure shown.

system: Staphylococcus aureus; assay: Antibacterial activity against Staphylococcus aureus assessed as zone of inhibition; assay type: functional

| Structure (SMILES) | inhibition zone (IZ) |
| --- | --- |
| O=C(/C=C/c1ccc(C(=O)OCc2cc(=O)c(O)co2)cc1)c1ccccc1 | 8 mm |
| O=C(/C=C/c1ccc(C(=O)OCc2cc(=O)c(O)co2)cc1)c1ccc(Br)cc1 | 8 mm |

molecular target: T1, Tyrosinase (Agaricus bisporus, UniProt O42713); assay: Inhibition of mushroom tyrosinase
T1 sequence (O42713 whole entry): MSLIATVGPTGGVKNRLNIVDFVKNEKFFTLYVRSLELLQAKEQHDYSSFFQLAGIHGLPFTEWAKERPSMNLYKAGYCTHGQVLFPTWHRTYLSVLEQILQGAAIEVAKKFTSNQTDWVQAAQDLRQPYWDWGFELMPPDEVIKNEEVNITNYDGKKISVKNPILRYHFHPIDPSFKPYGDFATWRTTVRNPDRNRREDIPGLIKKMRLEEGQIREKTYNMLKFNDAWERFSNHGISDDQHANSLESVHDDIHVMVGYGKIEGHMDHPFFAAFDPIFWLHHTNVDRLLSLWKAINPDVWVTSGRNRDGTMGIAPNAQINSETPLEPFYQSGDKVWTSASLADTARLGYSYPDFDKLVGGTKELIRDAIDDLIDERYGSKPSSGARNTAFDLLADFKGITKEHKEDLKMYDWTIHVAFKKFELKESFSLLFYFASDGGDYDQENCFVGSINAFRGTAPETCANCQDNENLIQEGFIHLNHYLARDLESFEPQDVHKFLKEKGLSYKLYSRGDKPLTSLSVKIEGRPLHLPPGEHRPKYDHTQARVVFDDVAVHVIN

| Structure (SMILES) | pIC50 |
| --- | --- |
| O=c1cc(Cn2cc(COc3cccc(F)c3)nn2)occ1O | 7.22 |
| N#Cc1ccc(OCc2cn(Cc3cc(=O)c(O)co3)nn2)cc1 | 7.22 |
| O=c1cc(Cn2cc(COc3cccc4ccccc34)nn2)occ1O | 7.22 |
| Nn1c(SCc2cc(=O)c(O)co2)nnc1-c1ccc(Cl)cc1 | 5.35 |
| O=C(/C=C/c1ccc2c(c1)OCCO2)OCc1cc(=O)c(O)co1 | 5.82 |
| COc1cc(OC)cc(OCc2cn(Cc3cc(=O)c(O)co3)nn2)c1 | 7.22 |
| O=c1cc(CO)oc(CN2CCN(Cc3ccc(Cl)c(Cl)c3)CC2)c1O | 4.06 |
| O=c1cc(Cn2cc(COc3ccc(Cl)cc3)nn2)occ1O | 7.22 |
| O=c1cc(Cn2cc(COc3cccc(Cl)c3)nn2)occ1O | 7.22 |
| COc1ccc(OCc2cn(Cc3cc(=O)c(O)co3)nn2)cc1 | 7.22 |
| O=c1cc(Cn2cc(COc3ccc(Cl)cc3Cl)nn2)occ1O | 7.22 |
| O=c1cc(Cn2cc(COc3ccc(F)cc3)nn2)occ1O | 7.22 |

Now from value to compound:

| pIC50 | Structure (SMILES) |
| --- | --- |
| 7.22 | O=c1cc(Cn2cc(COc3ccc4ccccc4c3)nn2)occ1O |
| 5.82 | O=C(OCc1cc(=O)c(O)co1)c1ccc2c(c1)OCCO2 |
| 7.22 | O=c1cc(Cn2cc(COc3ccccc3)nn2)occ1O |
| 7.22 | COc1cc(OCc2cn(Cc3cc(=O)c(O)co3)nn2)cc(OC)c1OC |
| 6.27 | O=c1cc(CSc2ccc(O)cc2)occ1O |
| 7.22 | O=c1cc(Cn2cc(COc3ccc(Br)cc3)nn2)occ1O |
| 5.82 | O=C(OCc1cc(=O)c(O)co1)c1ccc2c(c1)OCO2 |
| 7.22 | O=c1cc(Cn2cc(COc3ccc([N+](=O)[O-])cc3)nn2)occ1O |
| 7.22 | CC(=O)Nc1ccc(OCc2cn(Cc3cc(=O)c(O)co3)nn2)cc1 |
| 7.22 | O=c1cc(Cn2cc(COc3ccc(CO)cc3)nn2)occ1O |

molecular target: Histamine H3 receptor (Homo sapiens, UniProt Q9Y5N1); assay: Binding affinity to human H3R expressed in HEK293 cells membrane; assay type: cell membranes
Sequence (Q9Y5N1 whole entry): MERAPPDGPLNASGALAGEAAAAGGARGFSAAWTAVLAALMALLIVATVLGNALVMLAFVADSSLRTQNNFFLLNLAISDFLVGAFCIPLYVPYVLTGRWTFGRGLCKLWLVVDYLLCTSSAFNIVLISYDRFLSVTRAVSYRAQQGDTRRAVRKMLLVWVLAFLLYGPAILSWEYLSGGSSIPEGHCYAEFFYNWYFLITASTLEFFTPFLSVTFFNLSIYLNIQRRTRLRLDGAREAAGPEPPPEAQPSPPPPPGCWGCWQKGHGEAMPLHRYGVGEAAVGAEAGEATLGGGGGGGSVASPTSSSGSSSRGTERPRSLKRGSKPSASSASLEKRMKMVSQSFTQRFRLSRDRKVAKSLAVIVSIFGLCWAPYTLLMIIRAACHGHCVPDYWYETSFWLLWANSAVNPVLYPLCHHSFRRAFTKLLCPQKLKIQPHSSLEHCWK

| Structure (SMILES) | pKi |
| --- | --- |
| O=c1cc(CN(Cc2ccc(OCCCN3CCCCC3)cc2)Cc2cc(=O)c(O)co2)occ1O | 8.00 |
| O=c1cc(CNCc2ccc(OCCCN3CCCCC3)cc2)occ1O | 7.50 |

system: Candida albicans; assay: Antifungal activity against Candida albicans ATCC 90028; assay type: functional

| Structure (SMILES) | MIC |
| --- | --- |
| Cc1cc(=O)c(O)c(CN2CCN(c3cccc(C(F)(F)F)c3)CC2)o1 | 64 µg/mL (≈ 174 µM) |
| Cc1cc(=O)c(O)c(CN2CCN(c3ccc([N+](=O)[O-])cc3)CC2)o1 | 64 µg/mL (≈ 185 µM) |
| Cc1cc(=O)c(O)c(CN2CCN(c3ccc(F)cc3)CC2)o1 | 64 µg/mL (≈ 201 µM) |
| COc1cccc(N2CCN(Cc3oc(C)cc(=O)c3O)CC2)c1 | 64 µg/mL (≈ 194 µM) |
| CC(=O)c1ccc(N2CCN(Cc3oc(C)cc(=O)c3O)CC2)cc1 | 64 µg/mL (≈ 187 µM) |

Further lines, results first:

| MIC | Structure (SMILES) |
| --- | --- |
| 64 µg/mL (≈ 204 µM) | Cc1cc(=O)c(O)c(CN2CCN(Cc3ccccc3)CC2)o1 |
| 64 µg/mL (≈ 213 µM) | Cc1cc(=O)c(O)c(CN2CCN(c3ccccc3)CC2)o1 |
| 64 µg/mL (≈ 179 µM) | Cc1cc(=O)c(O)c(CN2CCN(Cc3ccc4c(c3)OCO4)CC2)o1 |
| 64 µg/mL (≈ 191 µM) | Cc1cc(=O)c(O)c(CN2CCN(c3ccc(Cl)cc3)CC2)o1 |
| 64 µg/mL (≈ 191 µM) | Cc1cc(=O)c(O)c(CN2CCN(c3ccccc3Cl)CC2)o1 |
| 64 µg/mL (≈ 212 µM) | Cc1cc(=O)c(O)c(CN2CCN(c3ccccn3)CC2)o1 |
| 64 µg/mL (≈ 201 µM) | Cc1cc(=O)c(O)c(CN2CCN(c3ccccc3F)CC2)o1 |
| 64 µg/mL (≈ 194 µM) | COc1ccccc1N1CCN(Cc2oc(C)cc(=O)c2O)CC1 |

molecular target: T2, Tyrosinase (Agaricus bisporus) (UniProt O42713); assay: Potency index, ratio of kojic acid IC50 to test compound IC50 for inhibition of mushroom tyrosinase
T2 sequence (whole entry): T1 sequence (O42713 whole entry)

| Structure (SMILES) | Ratio IC50 |
| --- | --- |
| O=c1cc(Cn2cc(COc3ccc4ccccc4c3)nn2)occ1O | 155 |
| O=c1cc(Cn2cc(COc3cccc4ccccc34)nn2)occ1O | 31 |
| O=c1cc(CO)oc(CN2CCN(Cc3ccc(Cl)c(Cl)c3)CC2)c1O | 5 |
